The values below come from patent publication EP2975030B1, “DIHYDROPYRIDAZINE-3,5-DIONE DERIVATIVE” (Chugai Seiyaku Kabushiki Kaisha, priority 2013, dated 2014).

The subject of the experiment is rat small-intestinal brush border membrane vesicles. Kind of experiment: Inhibitory effect on 33PO4 uptake into rat small-intestinal brush border membrane vesicles (rapid filtration method). It is filed as biochemical, Wistar female rat. The following applies: 1 µM test compound; 33PO4 uptake into rat small-intestinal BBMVs, 60 seconds. The method in brief:
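Uptake was terminated by ice-cold 110 mM NaCl, 1 mM KH2PO4, 10 mM HEPES (pH 7.5) buffer and immediate suction filtration, then washing. Using rat small-intestinal BBMVs, retained 33PO4 was quantified by liquid scintillation counting as transport activity.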
`COCCOc1cc(NC(=O)C2=C(O)C3(CCCC3)N(C)N(Cc3ccc(OCCN(C)CCOC)c(F)c3F)C2=O)c(-c2ncnc(C(F)(F)F)c2C)cc1C(F)(F)F` [Example 439, 7-[[2,3-Difluoro-4-[2-[2-methoxyethyl(methyl)amino]ethoxy]phenyl]methyl]-10-hydroxy-N-[5-(2-methoxyethoxy)-2-[5-methyl-6-(trifluoromethyl)pyrimidin-4-yl]-4-(trifluoromethyl)phenyl]-6-methyl-8-oxo-6,7-diazaspiro[4.5]dec-9-ene-9-carboxamide]: the “Rate of uptake inhibition (%) (1 µM)” value was determined as 35%.
For `C[C@]12CCCN1N(Cc1cccc(F)c1F)C(=O)C(C(=O)Nc1ccc(C(F)(F)F)cc1-c1ccc(C(F)(F)F)nc1)=C2O` [Example 90], the “Rate of uptake inhibition (%) (1 µM)” value is listed as 91%.
The value for `CN1N(Cc2ccc(OCCN3CCOC(C)(C)C3)c(F)c2F)C(=O)C(C(=O)Nc2ccc(C(F)(F)F)cc2-c2cc(C(F)(F)F)ncn2)=C(O)C12CCC2` [Example 342] was 43%; that for `C[C@]12CCCN1N(Cc1cccc(Cl)c1F)C(=O)C(C(=O)Nc1ccc(C(F)(F)F)cc1-c1cc(C(F)(F)F)ncn1)=C2O` [Example 209] was 76%.
Take `CN1N(Cc2cccc(F)c2F)C(=O)C(C(=O)Nc2cc(C(F)(F)F)ccc2-c2ccc(C(F)(F)F)nc2)=C(O)C1(C)C` [Example 307]: the “Rate of uptake inhibition (%) (1 µM)” value is 41%.
Consider `Cc1cccc(CN2C(=O)C(C(=O)Nc3ccc(C(F)(F)F)cc3-c3cc(C(F)(F)F)ncn3)=C(O)[C@@]3(C)CCCN23)c1` [Example 186], for which the “Rate of uptake inhibition (%) (1 µM)” value is on record as 88%.
For `C[C@]12CCCN1N(Cc1cccc(F)c1F)C(=O)C(C(=O)Nc1ccc(C(F)(F)F)cc1-c1cc(C#N)ncn1)=C2O` [Example 100], the “Rate of uptake inhibition (%) (1 µM)” value worked out at 69%.
Then “1-[(3-Fluorophenyl)methyl]-4-hydroxy-4a-methyl-N-[5-methyl-2-(trifluoromethyl)furan-3-yl]-2-oxo-5,6,7,8-tetrahydropyrido[1,2-b]pyridazine-3-carboxamide [Example 18]”, with 12%.
In the case of `CN1N(Cc2ccc(OCCN3CCC(N4CCOCC4)CC3)c(F)c2F)C(=O)C(C(=O)Nc2ccc(C(F)(F)F)cc2-c2cc(C(F)(F)F)ncn2)=C(O)C12CCCC2` [Example 374], the “Rate of uptake inhibition (%) (1 µM)” value is 42%.
For the molecule `Cc1cc(NC(=O)C2=C(O)[C@@]3(C)CCCN3N(Cc3cccc(F)c3F)C2=O)c(C(F)(F)F)o1` [Example 7], the “Rate of uptake inhibition (%) (1 µM)” value was 69%.
For `C[C@]12CCCN1N(Cc1cccc(F)c1F)C(=O)C(C(=O)Nc1ccc(Br)cc1F)=C2O` [Example 75], the “Rate of uptake inhibition (%) (1 µM)” value came out at 74%.
The value for `C[C@]12CCCN1N(Cc1ccc(Br)cc1F)C(=O)C(C(=O)Nc1cc(F)c(Br)c(F)c1)=C2O` [Example 166, (4aR)-N-(4-Bromo-3,5-difluorophenyl)-1-[(4-bromo-2-fluorophenyl)methyl]-4-hydroxy-4a-methyl-2-oxo-6,7-dihydro-5H-pyrrolo[1,2-b]pyridazine-3-carboxamide] was 73%; that for `COCCN(C)CCOCCOCCOc1ccc(CN2C(=O)C(C(=O)Nc3ccc(C(F)(F)F)cc3-c3cc(C(F)(F)F)ncn3)=C(O)C3(CCCC3)N2C)c(F)c1F` [Example 430] was 29%; that for `COCCN(C)CCN(C)c1ccc(CN2C(=O)C(C(=O)Nc3ccc(C(F)(F)F)cc3-c3cc(C(F)(F)F)ncn3)=C(O)C3(CCCC3)N2C)c(F)c1F` [Example 442] was 24%.
For `C[C@]12CCCN1N(Cc1ccc(F)cc1F)C(=O)C(C(=O)Nc1ccc(C(F)(F)F)cc1-c1ccc(C(F)(F)F)nc1)=C2O` [Example 173], the “Rate of uptake inhibition (%) (1 µM)” value is reported as 73%.
Turning to `CSc1ccc(-c2cc(C(F)(F)F)ccc2NC(=O)C2=C(O)[C@@]3(C)CCCN3N(Cc3ccc(C#CCCCCC(=O)O)c(F)c3F)C2=O)cn1` [Example 117, 7-[4-[[(4aR)-4-Hydroxy-4a-methyl-3-[[2-(6-methylsulfanylpyridin-3-yl)-4-(trifluoromethyl)phenyl]carbamoyl]-2-oxo-6,7-dihydro-5H-pyrrolo[1,2-b]pyridazin-1-yl]methyl]-2,3-difluorophenyl]hept-6-ynoate], the “Rate of uptake inhibition (%) (1 µM)” value was determined as 78%.
In the case of `CN1N(Cc2cccc(F)c2F)C(=O)C(C(=O)Nc2ccc(C(F)(F)F)cc2-c2cc(C(F)(F)F)ncn2)=C(O)C12CCC2` [Example 300], the “Rate of uptake inhibition (%) (1 µM)” value is reported as 74%.
Regarding `C[C@]12CCCN1N(Cc1ccccc1F)C(=O)C(C(=O)Nc1ccc(C(F)(F)F)cc1-c1ccc(C(F)(F)F)nc1)=C2O` [Example 200], the “Rate of uptake inhibition (%) (1 µM)” value stood at 80%.
As for `C[C@]12CCCN1N(Cc1ccc(OC[C@H]3CCCO3)c(F)c1F)C(=O)C(C(=O)Nc1ccc(C(F)(F)F)cc1-c1ccc(C(F)(F)F)nc1)=C2O` [Example 160], the “Rate of uptake inhibition (%) (1 µM)” value is reported as 77%.
Regarding `C[C@]12CCCN1N(Cc1cccc(F)c1Cl)C(=O)C(C(=O)Nc1cc(F)c(Br)c(F)c1)=C2O` [Example 174], the “Rate of uptake inhibition (%) (1 µM)” value amounted to 87%.
With `C[C@]12CCCN1N(Cc1ccc(F)c(F)c1)C(=O)C(C(=O)Nc1ccc(C(F)(F)F)cc1-c1cc(C(F)(F)F)ncn1)=C2O` [Example 214], the “Rate of uptake inhibition (%) (1 µM)” value is 91%.
Then `Cc1nc(NC(=O)C2=C(O)C3(CCC3)N(C)N(Cc3cccc(F)c3F)C2=O)ccc1Br` [Example 259], with 52%.
`CCC1(CC)C(O)=C(C(=O)Nc2ccc(C(F)(F)F)cc2-c2cc(C(F)(F)F)ncn2)C(=O)N(Cc2ccc(OCCN3CCOCC3)c(F)c2F)N1C` [Example 291]: the “Rate of uptake inhibition (%) (1 µM)” value was determined as 47%.
`CC(C)[C@H]1C(O)=C(C(=O)Nc2ccc(C(F)(F)F)cc2-c2ccc(C(F)(F)F)nc2)C(=O)N(Cc2cccc(F)c2F)N1C` [Example 253]: the “Rate of uptake inhibition (%) (1 µM)” value was 40%.
The value for `CN1N(Cc2ccc(OCCCCCOC[C@H](O)CO)c(F)c2F)C(=O)C(C(=O)Nc2ccc(C(F)(F)F)cc2-c2cc(C(F)(F)F)ncn2)=C(O)C12CCCC2` [Example 394] was 45%.
In the case of `Cc1c(C#N)ncnc1-c1cc(C(F)(F)F)ccc1NC(=O)C1=C(O)[C@@]2(C)CCCN2N(Cc2cccc(F)c2F)C1=O` [Example 24], the “Rate of uptake inhibition (%) (1 µM)” value is on record as 76%.
Turning to `C[C@]12CCCN1N(Cc1cc(F)cc(F)c1)C(=O)C(C(=O)Nc1ccc(C(F)(F)F)cc1-c1ccc(C(F)(F)F)nc1)=C2O` [Example 171], the “Rate of uptake inhibition (%) (1 µM)” value is listed as 78%.
With `COc1ncc(-c2cc(C(F)(F)F)ccc2NC(=O)C2=C(O)[C@@]3(C)CCCN3N(Cc3cccc(F)c3F)C2=O)c(OC)n1` [Example 72], the “Rate of uptake inhibition (%) (1 µM)” value is given as 92%.
As to `CN1N(Cc2ccc(OCCCCCOC[C@H](O)CO)c(F)c2F)C(=O)C(C(=O)Nc2ccc(C(F)(F)F)cc2-c2ccc(C(F)(F)F)nc2)=C(O)C12CCCC2` [Example 388], the “Rate of uptake inhibition (%) (1 µM)” value is listed as 15%.
The value for `C[C@]12CCCN1N(Cc1cccc(Cl)c1)C(=O)C(C(=O)Nc1cc(F)c(Br)c(F)c1)=C2O` [Example 221] was 82%; that for `CN1N(Cc2ccc(OCCN3CCOCC3)c(F)c2F)C(=O)C(C(=O)Nc2ccc(C(F)(F)F)cc2-c2ncnc(C(F)(F)F)c2Cl)=C(O)C12CCC2` [Example 284] was 46%.
For the molecule `CC1(C)C(O)=C(C(=O)Nc2ccc(C(F)(F)F)cc2-c2cc(C(F)(F)F)ncn2)C(=O)N(Cc2cccc(F)c2F)N1c1ccccc1` [Example 299], the “Rate of uptake inhibition (%) (1 µM)” value was found to be 45%.
The value for `COC[C@@H]1CCCN1CCOc1ccc(CN2C(=O)C(C(=O)Nc3ccc(C(F)(F)F)cc3-c3cc(C(F)(F)F)ncn3)=C(O)C3(CCCC3)N2C)c(F)c1F` [Example 375] was 31%; that for `C[C@]12CCCN1N(Cc1ccccc1C#N)C(=O)C(C(=O)Nc1ccc(C(F)(F)F)cc1-c1cc(C(F)(F)F)ncn1)=C2O` [Example 178] was 81%.
Take `CN1N(Cc2ccc(OCCCCCOC[C@H](O)CO)c(F)c2F)C(=O)C(C(=O)Nc2ccc(C(F)(F)F)cc2-c2cc(C(F)(F)F)ncn2)=C(O)C12CCC2` [Example 391]: the “Rate of uptake inhibition (%) (1 µM)” value came out at 42%.
For the molecule `Cc1nc(NC(=O)C2=C(O)[C@H](C(C)(C)C)N(C)N(Cc3cccc(F)c3F)C2=O)ccc1Br` [Example 241], the “Rate of uptake inhibition (%) (1 µM)” value is listed as 86%.
The value for `Cc1nc(NC(=O)C2=C(O)C3(CCCC3)N(C)N(Cc3cccc(F)c3F)C2=O)ccc1Br` [Example 262] was 43%.
Consider `CN1N(Cc2cccc(F)c2F)C(=O)C(C(=O)Nc2ccc(C(F)(F)F)cc2-c2ccc(C(F)(F)F)nc2)=C(O)C12CCC2` [Example 301], for which the “Rate of uptake inhibition (%) (1 µM)” value worked out at 79%.
As to `CCN(CCN(C)CCOC)c1ccc(CN2C(=O)C(C(=O)Nc3ccc(C(F)(F)F)cc3-c3cc(C(F)(F)F)ncn3)=C(O)C3(CCCC3)N2C)c(F)c1F` [Example 443], the “Rate of uptake inhibition (%) (1 µM)” value was 28%.
As to `C[C@]12CCCN1N(Cc1cccc(C#N)c1)C(=O)C(C(=O)Nc1ccc(C(F)(F)F)cc1-c1cc(C(F)(F)F)ncn1)=C2O` [Example 179], the “Rate of uptake inhibition (%) (1 µM)” value was 83%.
On to `COc1cccc(-c2cc(C(F)(F)F)ccc2NC(=O)C2=C(O)[C@@]3(C)CCCN3N(Cc3ccc(C#CCCCCO)c(F)c3F)C2=O)c1OC` [Example 135], for which the “Rate of uptake inhibition (%) (1 µM)” value came out at 90%.
Then `CN(C)C(=O)N1CCN(CCOc2ccc(CN3C(=O)C(C(=O)Nc4ccc(C(F)(F)F)cc4-c4cc(C(F)(F)F)ncn4)=C(O)C4(CCC4)N3C)c(F)c2F)CC1` [Example 364], with 36%.
Regarding `CN1N(Cc2ccc(OCCCCCCC(=O)O)c(F)c2F)C(=O)C(C(=O)Nc2ccc(C(F)(F)F)cc2-c2cc(C(F)(F)F)ncn2)=C(O)C12CCCC2` [Example 335], the “Rate of uptake inhibition (%) (1 µM)” value came out at 30%.
As to `C[C@]12CCCN1N(Cc1ccc(F)c(F)c1)C(=O)C(C(=O)Nc1cc(F)c(Br)c(F)c1)=C2O` [Example 191], the “Rate of uptake inhibition (%) (1 µM)” value is on record as 87%.
